In ChEMBL document CHEMBL2203232, “Design and discovery of new (3S,5R)-5-[4-(2-chlorophenyl)-2,2-dimethyl-5-oxopiperazin-1-yl]piperidine-3-carboxamides as potent renin inhibitors” (Bioorg Med Chem Lett, 2012):
Where a chain is given by its changes, count along the chain named. Calls of active or inactive are those of the source. No cut-off for these calls is given here.

How the values were obtained:
[1] = AUC (0 to 24 hrs) in Sprague-Dawley rat at 10 mg/kg, po; assay type: ADME, organism-based; design: time < 24 hr, dose 10 mg/kg, route oral; details: plasma
[2] = Volume of distribution at steady state in Sprague-Dawley rat at 1 mg/kg, iv; assay type: ADME, organism-based; design: dose 1 mg/kg, route intravenous; details: in vivo, read-out: Vdss
[3] = Clearance in Sprague-Dawley rat at 1 mg/kg, iv; assay type: ADME, organism-based; design: dose 1 mg/kg, route intravenous; details: in vivo
[4] = Oral bioavailability in Sprague-Dawley rat at 10 mg/kg; assay type: ADME, organism-based; details: in vivo
Renin [5] = molecular target: T1, Renin (Homo sapiens, UniProt P00797); experiment: Inhibition of recombinant human renin using Arg-Glu(EDANS)-Ile-His-Pro-Phe-His-Leu-Val-Ile-His-Thr-Lys(DABCYL)-Arg as substrate incubated for 10 mins prior to substrate addition measured after 90 mins by fluorimetric analysis
T1 sequence (P00797 whole entry): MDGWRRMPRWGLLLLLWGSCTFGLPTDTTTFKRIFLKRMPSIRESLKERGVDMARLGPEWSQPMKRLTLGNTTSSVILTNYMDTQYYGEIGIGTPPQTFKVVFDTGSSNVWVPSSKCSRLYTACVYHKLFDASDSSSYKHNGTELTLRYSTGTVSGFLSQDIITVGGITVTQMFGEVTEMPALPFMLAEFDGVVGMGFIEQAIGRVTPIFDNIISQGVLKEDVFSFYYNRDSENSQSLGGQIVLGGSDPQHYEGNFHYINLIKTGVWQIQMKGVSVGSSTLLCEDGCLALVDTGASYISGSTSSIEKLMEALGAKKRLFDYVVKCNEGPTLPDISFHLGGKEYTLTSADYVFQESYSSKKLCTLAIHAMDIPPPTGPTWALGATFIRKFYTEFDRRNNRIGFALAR

Renin [6] = molecular target: T2, Renin (Macaca fascicularis, UniProt Q6DLS0); experiment: Inhibition of renin in cynomolgus monkey plasma after 60 mins by competitive radioimmunoassay
T2 sequence (Q6DLS0 whole entry): T1 sequence (P00797 whole entry) with T68A, I214L, S235A

[7] = Cmax in Sprague-Dawley rat at 10 mg/kg, po; assay type: ADME, organism-based; design: dose 10 mg/kg, route oral; details: in vivo
Rattus norvegicus = experiment: Antihypertensive activity in transgenic rat expressing human angiotensin and renin assessed as reduction in mean arterial blood pressure at 10 mg/kg, po measured up to 24 hrs; assay type: functional, organism-based; design: dose 10 mg/kg; details: Artery
[8] = Half life in Sprague-Dawley rat at 1 mg/kg, iv; assay type: ADME, organism-based; design: dose 1 mg/kg, route intravenous; details: in vivo

Row | Structure (SMILES) | IC50 (Renin [5]) | IC50 (Renin [6]) | other results
1 | CCOC[C@@H](CC(C)C)NC(=O)[C@@H]1CNC[C@H](N2CC(=O)N(c3ccccc3Cl)CC2(C)C)C1.O=C(O)/C=C/C(=O)O | 1.3 nM | 1.4 nM | AUC(0-t) at 24 h [1]: 1940 ng·h/mL; Vd [2]: 5.8 L/kg; clearance [3]: 31 mL/min/kg; bioavailability [4]: 45%; Cmax [7]: 540 ng/mL; Activity (Rattus norvegicus): Active; half-life [8]: 3.2 h
2 | CC(C)C[C@@H](NC(=O)[C@@H]1CNC[C@H](N2CC(=O)N(c3ccccc3Cl)CC2(C)C)C1)C(O)C(C)C (stereo in doubt; 14) | 2.5 nM | 7.5 nM | 
3 | CC(C)CCNC(=O)[C@@H]1CNC[C@H](CN2CC(=O)N(c3ccccc3Cl)CC2(C)C)C1 |  | > 1000 nM | 
4 | CC(C)C[C@@H](NC(=O)[C@@H]1CNC[C@H](N2CC(=O)N(c3ccccc3Cl)CC2(C)C)C1)C(O)C(C)C (stereo in doubt; 13) | 2.3 nM | 4.8 nM | 
5 | CC(C)CC(CC(C)C)NC(=O)[C@@H]1CNC[C@H](N2CC(=O)N(c3ccccc3Cl)CC2(C)C)C1 |  | 10 nM | 
6 | CC[C@H](CC(C)C)NC(=O)[C@@H]1CNC[C@H](N2CC(=O)N(c3ccccc3Cl)CC2(C)C)C1 | 2.8 nM | 16 nM | 
7 | CC(C)C[C@@H](NC(=O)[C@@H]1CNC[C@H](N2CC(=O)N(c3ccccc3Cl)CC2(C)C)C1)c1ccccc1 | 2.1 nM | 9 nM | 
8 | CC(C)CCNC(=O)[C@@H]1CNC[C@H](N2CC(=O)N(c3ccccc3Cl)CC2(C)C)C1 |  | 54 nM | 
9 | CCC[C@@H](NC(=O)[C@@H]1CNC[C@H](N2CC(=O)N(c3ccccc3Cl)CC2(C)C)C1)c1ccccc1 | 2.5 nM | 18 nM | 
10 | CC[C@@H](NC(=O)[C@@H]1CNC[C@H](N2CC(=O)N(c3ccccc3Cl)CC2(C)C)C1)c1ccccc1 | 2.1 nM | 6.6 nM | 
11 | CC(C)CCNC(=O)[C@@H]1CNC[C@H](C(=O)N2CC(=O)N(c3ccccc3Cl)CC2(C)C)C1 | > 1000 nM | > 1000 nM | 
12 | CC(C)C[C@@H](NC(=O)[C@@H]1CNC[C@H](N2CC(=O)N(c3ccccc3Cl)CC2(C)C)C1)C(=O)N(C)C | 8.4 nM | 23 nM | 
13 | CC(C)C[C@@H](NC(=O)[C@@H]1CNC[C@H](N2CC(=O)N(c3ccccc3Cl)CC2(C)C)C1)c1cccnc1 | 2.1 nM | 4.2 nM | 
